Marks after values point to notes of the source that are not given here.
Experiments:
Type in all cases: in vivo
Botrytis cinerea = experiment: Test C: tomato Botrytis on tomato seedlings, sprayed the day before inoculation, visual disease rating; details: 100 = 100% disease control; for pest or weed control at 200 ppm: Botrytis cinerea, 120 h
Method in brief: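 Compounds were dissolved in acetone (3% of final volume), then suspended in 50/50 acetone/purified water containing 250 ppm polyhydric alcohol ester surfactant. Suspensions were sprayed to run-off on tomato seedlings at 200 ppm, equivalent to 500 g/ha, or at 40 ppm where marked.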

Septoria nodorum = experiment: Test F: wheat glume blotch on wheat seedlings, sprayed the day before inoculation, visual disease rating; details: 100 = 100% disease control; for pest or weed control at 200 ppm: Parastagonospora nodorum, 264 h
Method in brief: (§1)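 Compounds were dissolved in acetone (3% of final volume), then suspended in 50/50 acetone/purified water with 250 ppm Trem® 014 surfactant. Suspensions at 200 ppm (some at 40 ppm) were sprayed to run-off, 200 ppm being equivalent to 500 g/ha.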

[1] = system: Puccinia recondita f. sp. tritici; experiment: Test H: wheat leaf rust, test suspension sprayed after inoculation of wheat seedlings, visual disease rating; details: 100 = 100% disease control; for pest or weed control at 200 ppm: Puccinia recondita, 96 h
Method in brief: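 Wheat seedlings inoculated with P. recondita spores, held 24 h saturated at 20 °C, then 2 days in growth chamber at 20 °C; compound suspension (acetone/water with Trem 014) sprayed to run-off afterwards. Rated visually; 200 ppm (≈500 g/ha) unless marked *, which denotes 40 ppm.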

[2] = system: Erysiphe graminis f. sp. tritici; experiment: Test J: wheat powdery mildew on wheat seedlings, sprayed the day before inoculation, visual disease rating; details: 100 = 100% disease control; for pest or weed control at 200 ppm: Blumeria graminis, 168 h
Method in brief: as §1

[3] = system: Puccinia recondita f. sp. tritici; experiment: Test I: wheat leaf rust on wheat seedlings, sprayed the day before inoculation, visual disease rating; details: 100 = 100% disease control; for pest or weed control at 200 ppm: Puccinia recondita, 168 h
Method in brief: as §1

Septoria tritici = experiment: Test G: wheat leaf blotch on wheat seedlings, sprayed the day before inoculation, visual disease rating; details: 100 = 100% disease control; for pest or weed control at 200 ppm: Zymoseptoria tritici, 504 h
Method in brief: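 Spray to run-off, 200 ppm (≈500 g/ha; starred = 40 ppm), acetone/water 50/50 + 250 ppm Trem® 014. Spore inoculation +1 d. 24° C saturated 48 h → 20° C 19 d. Visual rating.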

Alternaria solani = experiment: Test D: tomato early blight, sprayed the day before inoculation, visual disease rating; details: 100 = 100% disease control; for pest or weed control at 200 ppm: Alternaria solani, 168 h
Method in brief: as §1

[4] = 200 ppm, 0 = no control relative to controls
[5] = 40 ppm (marked *), 0 = no control

Compound | Test C disease control rating (Botrytis cinerea; [4]) | Test F disease control rating (Septoria nodorum; [4]) | Test H disease control rating [1, 4] | Test J disease control rating [2, 4] | Test I disease control rating [3, 4] | Test G disease control rating (Septoria tritici; [4]) | Test D disease control rating (Alternaria solani; [4]) | Test C disease control rating (Botrytis cinerea; 40 ppm (marked *)) | Test F disease control rating (Septoria nodorum; 40 ppm (marked *)) | Test H disease control rating ([1]; 40 ppm (marked *)) | Test I disease control rating ([3]; 40 ppm (marked *)) | Test G disease control rating (Septoria tritici; 40 ppm (marked *)) | Test D disease control rating (Alternaria solani; 40 ppm (marked *)) | further results
COc1ccc(F)c(-c2c(Cl)nc(Cl)n2-c2ccc(C)cc2)c1F [compound 310] | 99% | 99% | 61% | 100% | 100% | 96% | 100% |  |  |  |  |  |  | 
COc1cc(OC)c(Br)c(-n2c(C)nc(Br)c2Cc2ccc(F)cc2F)c1Br [compound 477] | 9% | 0% | 0% | 0% | 75% | 0% | 0% |  |  |  |  |  |  | 
COc1cc(F)c(-n2c(Cl)nc(CCl)c2-c2ccc(C)cc2)c(F)c1 [compound 581] |  |  |  |  |  |  |  | 99* % | 0* % | 84* % | 98* % | 96* % | 33* % | Test J disease control rating ([2]; 40 ppm (marked *)): 21* %
Cc1ccc(-n2c(Cl)nc(Br)c2-c2c(F)ccc(F)c2Cl)cc1 [compound 464] |  |  |  |  |  |  |  | 99* % | 0* % | 0* % | 99* % | 72* % | 89* % | Test J disease control rating ([2]; 40 ppm (marked *)): 100* %
Cc1nc(C)n(-c2ccc(F)cc2Cl)c1-c1ccc(Cl)c(F)c1 [compound 543] |  |  |  |  |  |  |  | 99* % | 0* % | 0* % | 95* % | 97* % | 60* % | Test J disease control rating ([2]; 40 ppm (marked *)): 0* %
COc1cc(F)c(-n2nnc(Cl)c2-c2ccc(Cl)cc2)c(F)c1 [compound 478] | 100% | 0% | 0% | 97% | 96% | 93% | 93% |  |  |  |  |  |  | 
CCOc1cc(F)c(-c2c(Cl)ncn2-c2ccc(F)cc2)c(F)c1 [compound 702] | 100% | 99% | 59% | 99% | 86% | 99% | 100% |  |  |  |  |  |  | 
Cc1nc(Br)n(-c2ccc(Cl)nc2)c1-c1c(F)ccc(C#N)c1F [compound 715] | 100% | 78% | 100% | 73% | 99% | 99% | 100% |  |  |  |  |  |  | 
COc1cc(F)c(-c2c(Br)nc(Br)n2-c2ccc(C)cc2)c(F)c1 [compound 524] |  |  |  | 97% |  |  |  | 99* % | 60* % | 85* % | 99* % | 98* % | 100* % | 
Fc1ccc(-n2cnc(Br)c2-c2c(F)ccc(F)c2F)cc1 [compound 332] | 100% | 60% | 9% | 99% | 96% | 95% | 99% |  |  |  |  |  |  | 
COC(=O)c1ccc(-n2c(Br)nc(Cl)c2-c2c(F)cccc2F)cc1 [compound 690] | 78% | 0% | 0% | 81% | 74% | 98% | 0% |  |  |  |  |  |  | 
5-[4-chloro-5-(2,6-difluoro-4-methoxyphenyl)-1H-imidazol-1-yl]-2-(trifluoromethyl)pyridine [Example 34] |  |  |  |  |  |  |  | 99* % | 99* % | 91* % | 100* % | 90* % | 100* % | Test J disease control rating ([2]; 40 ppm (marked *)): 100* %
COc1cc(F)c(-c2c(Cl)nc(C)n2-c2ccc(C(F)(F)F)nc2)c(F)c1 [Compound 713, 5-[4-chloro-5-(2,6-difluoro-4-methoxyphenyl)-2-methyl-1H-imidazol-1-yl]-2-(trifluoromethyl)pyridine] |  |  |  |  |  |  |  |  |  |  |  |  |  | pest or weed control at 200 ppm (Botrytis cinerea; [4]): 100%; pest or weed control at 200 ppm (Septoria nodorum; [4]): 100%; pest or weed control at 200 ppm [1, 4]: 78%; pest or weed control at 200 ppm [2, 4]: 100%; pest or weed control at 200 ppm [3, 4]: 100%; pest or weed control at 200 ppm (Septoria tritici; [4]): 100%; pest or weed control at 200 ppm (Alternaria solani; [4]): 100%
CSc1sc(-c2c(Br)nc(Br)n2-c2ccc(Cl)cc2)cc1Br [compound 408] |  |  |  |  |  |  |  |  |  |  |  |  |  | Test C disease control rating (Botrytis cinerea; [5]): 0* %; Test F disease control rating (Septoria nodorum; [5]): 0* %; Test H disease control rating [1, 5]: 0* %; Test J disease control rating [2, 5]: 0* %; Test I disease control rating [3, 5]: 0* %; Test G disease control rating (Septoria tritici; [5]): 3* %; Test D disease control rating (Alternaria solani; [5]): 0* %
COc1ccc(F)c(-c2c(Cl)ncn2-c2cccc(C)c2)c1F [compound 300] | 99% | 0% | 48% | 99% | 97% | 91% | 98% |  |  |  |  |  |  | 
COc1cc(F)c(-c2c(Cl)nc(Br)n2-c2ccc(OC)nc2)c(F)c1 [compound 705] | 99% | 99% | 100% | 100% | 100% | 99% | 100% |  |  |  |  |  |  | 
COc1cc(F)c(-n2c(Br)nc(C)c2-c2ccc(C)cc2)c(F)c1 [compound 525] |  |  |  |  |  |  |  | 100* % | 80* % | 68* % | 100* % | 98* % | 100* % | Test J disease control rating ([2]; 40 ppm (marked *)): 98* %
COc1ncccc1-n1c(Cl)nc(Cl)c1-c1c(F)cccc1F [compound 616] | 100% | 0% | 0% | 99% | 98% | 99% | 0% |  |  |  |  |  |  | 
Fc1cc(-n2cnc(Br)c2-c2c(F)ccc(F)c2F)ccc1Cl [compound 342] | 100% | 0% | 0% | 99% | 98% | 95% | 99% |  |  |  |  |  |  | 
COc1ccc(F)c(-c2c(Cl)nc(Br)n2-c2ccc(F)cc2)c1F [compound 314] | 99% | 100% | 32% | 100% | 100% | 93% | 100% |  |  |  |  |  |  | 
COc1cc(Cl)c(-c2c(Cl)nc(Cl)n2-c2ccc(Cl)c(F)c2)c(Cl)c1 [compound 437] | 99% | 60% | 0% | 98% | 98% | 100% | 80% |  |  |  |  |  |  | 
COc1cc(OC)cc(-n2cnc(C)c2-c2c(F)cc(OC)cc2F)c1 [Compound 632, 5-(2,6-difluoro-4-methoxyphenyl)-1-(3,5-dimethoxyphenyl)-4-methyl-1H-imidazole] |  |  |  |  |  |  |  |  |  |  |  |  |  | pest or weed control at 200 ppm (Botrytis cinerea; [4]): 99%; pest or weed control at 200 ppm (Septoria nodorum; [4]): 0%; pest or weed control at 200 ppm [1, 4]: 99%; pest or weed control at 200 ppm [2, 4]: 97%; pest or weed control at 200 ppm [3, 4]: 100%; pest or weed control at 200 ppm (Septoria tritici; [4]): 98%; pest or weed control at 200 ppm (Alternaria solani; [4]): 100%
Cc1nc(Cl)c(-c2c(F)cccc2F)n1-c1ccc2c(c1)OCCO2 [compound 470] |  |  |  |  |  |  |  | 99* % | 0* % | 0* % | 99* % | 92* % | 99* % | Test J disease control rating ([2]; 40 ppm (marked *)): 87* %
